Values joined by “and” are separate entries in the source; they are usually repeats but may differ in a detail not shown here. Equal entries are not always repeated. Where two headings read alike, the source gives them in different places.
How the values were obtained:
5HT3 receptor = molecular target: T1, 5HT3 receptor (Mus musculus, UniProt P23979); assay: In vitro 5HT3 receptor binding with [3H]GR 65630
T1 construct: Cells were homogenized in tris.HCl buffer; endogenous in cells; host or cells: NxG 108CC15 (NG108-15) cell membranes
T1 sequence (P23979 24-489): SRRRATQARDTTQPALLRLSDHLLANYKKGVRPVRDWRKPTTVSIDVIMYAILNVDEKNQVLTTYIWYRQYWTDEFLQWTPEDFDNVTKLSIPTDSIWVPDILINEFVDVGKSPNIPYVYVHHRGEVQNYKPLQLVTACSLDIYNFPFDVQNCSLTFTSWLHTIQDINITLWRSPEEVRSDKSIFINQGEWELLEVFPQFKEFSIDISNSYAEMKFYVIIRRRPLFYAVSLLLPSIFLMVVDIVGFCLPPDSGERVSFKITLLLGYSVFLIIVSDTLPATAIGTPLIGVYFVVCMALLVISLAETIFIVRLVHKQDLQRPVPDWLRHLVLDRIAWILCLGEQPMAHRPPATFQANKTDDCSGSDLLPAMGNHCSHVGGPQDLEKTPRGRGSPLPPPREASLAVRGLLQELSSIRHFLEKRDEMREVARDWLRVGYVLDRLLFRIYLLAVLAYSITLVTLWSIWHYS
Description: The incubation was run for 60 minutes at 37° C. Labelled membranes were collected and […] by rapid filtration under suction over […] filters (presoaked in 0.1% polyethyleneimine for at least 1 hour) using a 40-well filtration manifold. […] All experiments were repeated independently at least two times. Radioactivity on the filters was counted in a Packard Tri-carb 1600CA liquid scintillation analyzer. Counting data were collected directly in a Macintosh SE personal computer and further transferred to a Macintosh II personal computer. Counting data from assays in the presence of a compound were automatically expressed as percent of total binding measured in the absence of test compound. Inhibition curves plotting percent of total binding versus the log concentrations of the test compound were automatically generated.

Beagle dogs [1] = assay: MgSO4 induced intestinal lavage in dogs; type: in vivo, dog; details: Canis lupus familiaris; po, 1 hour before oral MgSO4 (200 ml); liquid stools within 4 hours; read-out: MgSO4 induced intestinal lavage ED50 (95% c.l.)
Description: (§1) Beagle dogs of both sexes and varying in body weight were used. During the experiments, the dogs were individually housed in cages. They were uniquely identified by an ear tattoo number (received at the time of weaning). The animals were fasted overnight but were given free access to fresh tap water via automatic drinking nipples in the back of the cage.
Beagle dogs (of both sexes and varying in body weight, 16 hours deprived from food) were orally pretreated with the test compound (0.5 ml/kg) and challenged 1 hour later with an oral administration of magnesium sulphate (MgSO4.7H2O, 64 g/l, 0.26 M; 200 ml). The onset of MgSO4-induced intestinal lavage was assessed over a period of 4 hours after challenge. Liquid stools within 4 hours occured almost never in control animals treated with distilled water (3.0% false positives; n>100) and were considered to reflect significant acceleration of the MgSO4-induced intestinal lavage. Doses in the active dose range were given to five animals each, tested in separate experimental sessions including solvent-treated control animals.

Beagle dogs [2] = assay: KleanPrep-induced intestinal lavage in dogs; type: in vivo, dog; details: for ED50: Canis lupus familiaris, oral pretreatment one hour earlier
Description: as §1
The dogs were orally pretreated with test compound or distilled water (0.5 ml/kg) and 1 hour later challenged by gavage with KleanPrep® solution. Dependent on the type of experiment, the KleanPrep® solution was administered more than once at 15 minutes intervals. The standard administration volume was 200 ml. The occurrence of liquid stools at 1, 2, 3, 4, 5 and 6 hours after the first administration of KleanPrep® was noted. The KleanPrep® solution consisted of polyethyleneglycol 3350 (59 g/l), sodium sulfate (5.685 g/l), sodium hydrogencarbonate (1.685 g/l), sodium chloride (1.465 g/l), potassium chloride (0.7425 g/l), aspartate (0.0494 g/l) and vanille (0.3291 g/l).
Each dose of the test compounds was given to 5 animals.

[3] = fourth experiment: 2×200 ml KleanPrep, relative to ED50 for within 4 hours

Row | Structure (SMILES) | ED50 (Beagle dogs [1]) | Ki (5HT3 receptor) | further results
1 | CO[C@@H]1CN(CCCNc2nccc(=O)[nH]2)CC[C@@H]1NC(=O)c1cc(Cl)c(N)c2c1OC(C)(C)C2 (relative stereo) [Compound A, (−)-cis-4-amino-5-chloro-2,3-dihydro-N-[1-[3-[(3,4-dihydro-4-oxo-2-pyrimidinyl)amino]propyl]-3-methoxy-4-piperidinyl]-2,2-dimethyl-7-benzofurancarboxamide] | 0.0027 mg/kg | – | Ki (5HT3 receptor; N×G 108CC15 cell membranes, [3H]GR 65630 2 nM, 60 min 37° C, logarithmic mean and 95% confidence limits, read-out: 5HT3 receptor Ki (95% c.l.)): 0.58 nM; ED50 (Beagle dogs [2]; read-out: ED50 liquid stools within 1 hour, fourth experiment: 2×200 ml KleanPrep): 0.085 mg/kg; ED50 (Beagle dogs [2]; fourth experiment: 2×200 ml KleanPrep, read-out: ED50 liquid stools within 4 hours): 0.0036 mg/kg; dose increment for liquid stools within 1 hour (Beagle dogs [2]; [3]): 24 times; dose increment for liquid stools within 2 hours (Beagle dogs [2]; [3]): 3 times; dose increment for liquid stools within 3 hours (Beagle dogs [2]; [3]): 1.1 times; dogs displaying liquid stools within 2 hours after KleanPrep administration (Beagle dogs [2]; second experiment: single 200 ml KleanPrep, 0.16 mg/kg p.o. one hour earlier): three out of five; dogs displaying first liquid stool within 2 hours after first administration of KleanPrep (Beagle dogs [2]; third experiment: 4×200 ml KleanPrep at 15 minute intervals, 0.16 mg/kg p.o. one hour earlier): all five; time of first liquid stool after first administration of KleanPrep (individual dogs) (Beagle dogs [2]; third experiment: 4×200 ml KleanPrep at 15 minute intervals, 0.16 mg/kg p.o. one hour earlier, 0.16 mg/kg): 38 min and 39 min and 42 min and 52 min and 77 min
2 | COc1cc(N)c(Cl)cc1C(=O)NC1CCN2CCCC1C2 (racemic) [(±)-Renzapride] | 0.074 mg/kg | 10 nM | –
3 | CN1C2CCCC1CC(NC(=O)c1nn(C)c3ccccc13)C2 (stereo not drawn) [(endo)-Granisetron] | 0.014 mg/kg | – | –
4 | Cc1nccn1CC1CCc2c(c3ccccc3n2C)C1=O (racemic) [(±)-Ondansetron] | 0.097 mg/kg | – | –
5 | COc1cc(N)c(Cl)cc1C(=O)NC1CN2CCC1CC2 (racemic) [(±)-Zacopride] | 0.023 mg/kg | – | –
6 | CN1[C@@H]2CC[C@H]1C[C@@H](OC(=O)c1c[nH]c3ccccc13)C2 [(endo)-Tropisetron] | 0.074 mg/kg | – | –
7 | CCn1c(=O)n(C(=O)OC2C[C@H]3CC[C@@H](C2)N3C)c2ccccc21 (stereo partly drawn) [DAU-6236] | 0.049 mg/kg | 6.6 nM | –
8 | CC(C)n1c(=O)n(C(=O)N[C@H]2C[C@H]3CC[C@@H](C2)N3C)c2ccccc21 [BIMU-8] | 0.016 mg/kg | 0.29 nM | –
9 | Cn1cc(C(=O)[C@@H]2CCc3nc[nH]c3C2)c2ccccc21 [(−)-YM-060] | 0.0012 mg/kg | 0.14 nM | –
10 | CN1[C@@H]2CC[C@H]1C[C@@H](OC(=O)c1cc(Cl)cc(Cl)c1)C2 [Bemesetron] | 0.77 mg/kg | 8 nM | –
